The text below walks through data of patent US20250002471A1 (Gilead Sciences, Inc., priority 2020, published 2025).

pEC50: −log10 of the molar value.

In general, pEC50 refers to the negative decadic logarithm of the EC50, by convention in mol/L.

One assay addresses T1, TLR7 (Homo sapiens, UniProt Q9NYK1).
T1 construct: lymphocytes, monocytes and dendritic cells that express TLR7, TLR8 and TLR9; endogenous in cells; host or cells: human PBMCs from healthy donors
T1 sequence (Q9NYK1 27-1049): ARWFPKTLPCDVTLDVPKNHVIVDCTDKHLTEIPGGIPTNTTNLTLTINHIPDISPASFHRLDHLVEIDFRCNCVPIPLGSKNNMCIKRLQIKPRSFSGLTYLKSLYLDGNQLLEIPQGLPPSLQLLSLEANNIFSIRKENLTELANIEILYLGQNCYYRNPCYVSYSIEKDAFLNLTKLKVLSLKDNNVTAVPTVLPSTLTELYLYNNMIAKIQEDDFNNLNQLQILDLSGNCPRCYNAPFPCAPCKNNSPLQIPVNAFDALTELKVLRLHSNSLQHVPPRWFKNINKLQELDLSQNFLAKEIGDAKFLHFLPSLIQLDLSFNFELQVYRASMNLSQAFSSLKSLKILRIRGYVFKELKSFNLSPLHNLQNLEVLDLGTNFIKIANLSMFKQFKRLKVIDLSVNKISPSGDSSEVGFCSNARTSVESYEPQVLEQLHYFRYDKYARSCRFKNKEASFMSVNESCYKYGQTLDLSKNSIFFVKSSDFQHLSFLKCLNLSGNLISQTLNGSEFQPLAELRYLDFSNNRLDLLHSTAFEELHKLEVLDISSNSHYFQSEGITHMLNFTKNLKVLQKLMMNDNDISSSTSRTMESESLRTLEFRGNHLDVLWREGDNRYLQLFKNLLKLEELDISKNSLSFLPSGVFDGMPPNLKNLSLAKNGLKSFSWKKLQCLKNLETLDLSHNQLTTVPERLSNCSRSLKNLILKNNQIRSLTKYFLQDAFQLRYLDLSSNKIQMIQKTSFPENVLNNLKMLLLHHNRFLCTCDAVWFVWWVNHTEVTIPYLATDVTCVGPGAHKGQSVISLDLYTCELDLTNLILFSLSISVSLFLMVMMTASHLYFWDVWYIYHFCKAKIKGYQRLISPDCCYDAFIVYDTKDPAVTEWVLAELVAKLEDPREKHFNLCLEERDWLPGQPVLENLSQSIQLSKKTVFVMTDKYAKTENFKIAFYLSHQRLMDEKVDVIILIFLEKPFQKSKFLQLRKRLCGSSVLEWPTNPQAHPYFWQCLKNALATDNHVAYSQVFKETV
The assay is described as follows: Human PBMC cell-based assay, TLR7 agonist GS-986 stimulation, cytokine (IL-6 and IFNα) readout. To be noted: human PBMCs, GS-986 400 nM, 6 hours; Table 26; read-out: TLR-7 EC50. From the text:
(§1) Human peripheral blood mononuclear cells (PBMCs) consist of lymphocytes, monocytes and dendritic cells that express TLR7, TLR8 and TLR9. These cells respond to TLR7, TLR8 and TLR9 ligand stimulation and produce cytokines and chemokines in vitro and in vivo. Human PBMCs are therefore suitable to be used in a cell-based assay to assess the in vitro potency of a TLR 7, 8, and/or 9 antagonist. The result is expected to be more translatable to the pharmacodynamics response in vivo than cell line-based assays.
(§2) Cryopreserved human PBMCs from healthy donors were thawed and resuspended in RPMI-1640 media with L-glutamine (Corning) supplemented with 10% Fetal Bovine Serum (Hyclone) and 1X Penicillin-Streptomycin (Corning). After counting, the cell density was adjusted to 2 million cells/ml and incubated for 1 hour at 37° C., 5% CO2 for recovery. Following the recovery, the cells were plated by adding 50p per well (100,000 cells) to 384-well cell culture plates (Greiner) containing 250nl of test antagonists in 100% DMSO per well, in a 10 points dose response in quadruplicates. PBMCs were incubated in the presence of test antagonists for one hour at 37° C., 5% CO2 before being stimulated with a TLR7 or TLR9 agonist. GS-986 (Gilead Sciences) was used as the TLR7 agonist at a final concentration of 400 nM. ODN-2216 (InvivoGen) was used as the TLR9 agonist at a final concentration of 3μM. PBMCs were incubated in the presence of the test antagonist and the TLR7 (or TLR9) agonist for an additional 6 hours at 37° C., 5% CO2. At the end of the incubation, the cell culture plates were centrifuged at 500 g for 5 min, and the cell culture supernatant was collected. The level of cytokines (IL-6 and IFNα) in the supernatant was measured by electrochemiluminescence immunoassays (Mesoscale Discovery) following manufacturer's recommended protocols. The level of cytokine measured was plotted against the test antagonist concentration and fitted to a sigmoidal function to determine the EC50, which are shown below in Table 26.

The next assay deals with T2, TLR9 (Homo sapiens, UniProt Q9NR96).
T2 construct: lymphocytes, monocytes and dendritic cells that express TLR7, TLR8 and TLR9; endogenous in cells; host or cells: human PBMCs from healthy donors
T2 sequence (Q9NR96 26-1032): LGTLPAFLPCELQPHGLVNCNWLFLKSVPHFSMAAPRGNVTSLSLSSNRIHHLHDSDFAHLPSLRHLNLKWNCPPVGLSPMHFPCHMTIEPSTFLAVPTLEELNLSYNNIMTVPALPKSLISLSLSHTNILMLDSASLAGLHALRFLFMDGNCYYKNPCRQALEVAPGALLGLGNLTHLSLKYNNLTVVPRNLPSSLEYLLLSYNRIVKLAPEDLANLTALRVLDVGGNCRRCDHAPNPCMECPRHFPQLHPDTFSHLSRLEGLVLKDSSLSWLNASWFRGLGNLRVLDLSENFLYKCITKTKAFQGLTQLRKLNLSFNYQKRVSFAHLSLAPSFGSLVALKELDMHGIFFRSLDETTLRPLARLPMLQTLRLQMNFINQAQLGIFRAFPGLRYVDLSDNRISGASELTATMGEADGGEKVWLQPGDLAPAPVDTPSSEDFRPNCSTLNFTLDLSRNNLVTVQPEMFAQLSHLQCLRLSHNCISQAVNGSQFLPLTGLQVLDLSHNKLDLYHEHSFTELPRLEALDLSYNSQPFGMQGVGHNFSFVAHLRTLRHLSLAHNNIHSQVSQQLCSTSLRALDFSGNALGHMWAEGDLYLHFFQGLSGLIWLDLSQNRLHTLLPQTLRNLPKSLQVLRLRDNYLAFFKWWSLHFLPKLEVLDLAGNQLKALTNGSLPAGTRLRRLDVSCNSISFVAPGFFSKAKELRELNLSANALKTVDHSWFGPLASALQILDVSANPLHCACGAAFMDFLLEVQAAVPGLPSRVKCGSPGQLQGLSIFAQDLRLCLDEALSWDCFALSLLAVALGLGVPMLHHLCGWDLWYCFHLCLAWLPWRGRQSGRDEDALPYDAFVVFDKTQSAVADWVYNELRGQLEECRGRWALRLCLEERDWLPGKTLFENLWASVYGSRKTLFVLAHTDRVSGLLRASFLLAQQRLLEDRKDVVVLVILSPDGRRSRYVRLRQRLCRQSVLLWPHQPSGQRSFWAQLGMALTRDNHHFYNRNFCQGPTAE
The assay is described as follows: Human PBMC cell-based assay, TLR9 agonist ODN-2216 stimulation, cytokine (IL-6 and IFNα) readout. Conditions: human PBMCs, ODN-2216 3 μM, 6 hours; Table 26; read-out: TLR-9 EC50.
Excerpt: as §1, §2

In the case of `Cc1cc(-c2[nH]c3cc(-c4ccc(CN5CCNCC5)cc4)ccc3c2C)cc(C)n1` [Example 7], the pEC50 on TLR7 is 6.77; on TLR9, 7.06.
Take `Cc1cc(-c2[nH]c3cc(-c4ccc5c(c4)CC(N)C5)ccc3c2C)cc(C)n1` (stereo not drawn) [Example 20]: the pEC50 at TLR7 was 6.93; at TLR9, 7.05.
Turning to `Cc1cc(-c2[nH]c3cc(-c4ccc5c(c4)[nH]c(=O)n5C4CCNCC4)ccc3c2C)cc(C)n1` [Example 187, 6-[2-(2,6-dimethyl-4-pyridyl)-3-methyl-1H-indol-6-yl]-3-(4-piperidyl)-1H-benzimidazol-2-one], the pEC50 is 6.77 at TLR7 and 6.33 at TLR9.
As for `Cc1cc(-c2[nH]c3cc(-c4ccc(N5CCN(CCO)CC5)nc4)ccc3c2C2CC2)cc(C)n1` [Example 143], the negative logarithm of the EC50 (pEC50) on TLR7 was 8.47; at TLR9 it was 6.91.
Turning to `Cc1cc(-c2[nH]c3cc(-c4ccc(N5CCN(C(=O)CN(C)C)CC5)nc4)ccc3c2C)cc(C)n1` [Example 106, 2-(dimethylamino)-1-(4-(5-(2-(2,6-dimethylpyridin-4-yl)-3-methyl-1H-indol-6-yl)pyridin-2-yl)piperazin-1-yl)ethan-1-one], the pEC50 at TLR7 is 7.40; on TLR9, 7.74.
On to `CNCCN(C)c1ccc(-c2ccc3c(C)c(-c4cc(C)nc(C)c4)[nH]c3c2)cn1` [Example 30], for which the negative logarithm of the EC50 (pEC50) is 7.62 at TLR7 and 7.25 at TLR9.
As for `Cc1cc(-c2[nH]c3cc(-c4cn(C5CCNCC5)nc4C)ccc3c2C)cc(C)n1` [Example 11], the pEC50 was 6.46 on TLR7 and 6.64 at TLR9.
As for `Cc1cc(-c2[nH]c3cc(-c4ccc(N5CCC(N)CC5)nc4)ccc3c2C2CC2)cc(C)n1` [Example 104, 1-(5-(3-cyclopropyl-2-(2,6-dimethylpyridin-4-yl)-1H-indol-6-yl)pyridin-2-yl)piperidin-4-amine], the negative-log EC50 (pEC50) on TLR7 was 8.08; at TLR9, 7.36.
For the compound `Cc1cc(-c2[nH]c3cc(-c4ccnc(N5CCOCC5)c4)ccc3c2C)cc(C)n1` [Example 59, 4-(4-(2-(2,6-dimethylpyridin-4-yl)-3-methyl-1H-indol-6-yl)pyridin-2-yl)morpholine], the pEC50 at TLR7 was 6.09; on TLR9 it was 5.75.
On to `Cc1cc(-c2[nH]c3cc(-c4ccc(N5CCN(C(=O)[C@H]6CCCN6C)CC5)nc4)ccc3c2C)cc(C)n1` [Example 109], for which the negative logarithm of the EC50 (pEC50) on TLR7 was 7.82; at TLR9, 7.45.
Regarding `Cc1cc(-c2[nH]c3cc(-c4ccnc(N5CCN(C)CC5)c4)ccc3c2C)cc(C)n1` [Example 60, 2-(2,6-dimethylpyridin-4-yl)-3-methyl-6-(2-(4-methylpiperazin-1-yl)pyridin-4-yl)-1H-indole], the negative-log EC50 (pEC50) on TLR7 was 6.57; on TLR9, 6.96.
Consider `Cc1cc(-c2[nH]c3cc(-c4ccc5nc([C@@H]6CCCNC6)[nH]c5c4)ccc3c2C)cc(C)n1` [Example 160], for which the negative logarithm of the EC50 (pEC50) on TLR7 is 7.51; on TLR9 it was 6.25.
The like results for `Cc1cc(-c2[nH]c3cc(-c4ccc(N5CCNCC5)nc4)ccc3c2C)c(C)cn1` [Example 74] were, in that order, 7.84 and 5.90.
With `Cc1cc(-c2[nH]c3cc(-c4ccc(N5CCNCC5)nc4)ccc3c2C)cc(N)n1` [Example 78], the results for the negative-log EC50 (pEC50) at TLR7 and at TLR9 were 7.48 and 6.92, respectively.
The matching figures for `Cc1cc(-c2[nH]c3cc(-c4cnc(N5CCNCC5)nc4)ccc3c2C)cc(C)n1` [Example 65]: 7.82 and 7.20.
The matching figures for `Cc1cc(-c2[nH]c3cc(-c4ccc(N5CCNCC5)nc4)ccc3c2C)cc(C#N)n1` [Example 77]: 7.98 and 6.11.
`Cc1cc(-c2[nH]c3cc(-c4cnc5[nH]c(C)nc5c4)ccc3c2C)cc(C)n1` [Example 45]: the negative-log EC50 (pEC50) on TLR7 is 6.48; on TLR9, 6.21.
For the compound `Cc1cc(-c2[nH]c3cc(-c4ccc(N5CCNCC5)nc4)ccc3c2C)cnn1` [Example 76], the results for the pEC50 on TLR7 and at TLR9 were 7.20 and 6.38, respectively.
